Data set [1] can be described thus: Clinical study (PK study): relative bioavailability and PK profile of estradiol after wafers vs oral tablet and intranasal spray. The settings on record: female, human. Type of data set: in vivo, healthy postmenopausal women. As for the experimental part:
Finally, it is the present inventors' experience that the serum estradiol values are somewhat dependent on the applied laboratory assay.
The following not-dose-normalised data, where all parameters are expressed in percentage of the respective Aerodiol® values, were obtained:
Estradiol may be determined by two different assays:
The analytes and their deuterated internal standards are extracted from 1.00 ml of human serum using BondElut Certify® solid-phase cartridges. Estradiol and estrone are eluted from the solid phase cartridges with ethyl acetate. The analytes undergo three separate derivatisation steps: (1) reaction with pentafluorobenzoyl chloride, (2) reaction with O-(2,3,4,5,6-pentafluorobenzyl)-hydroxylamine hydrochloride, and (3) reaction with MSTFA. The derivatised analytes are then separated by gas chromatography using a DB-17 fused silica capillary column and detected by tandem mass spectrometry using negative ion chemical ionization. A 1/(concentration)^2 weighted least-squares regression procedure is used to fit a linear function to the calibration data.
A 500 μl sample aliquot is fortified with 25 μl of internal standard working solution. Analytes are isolated through liquid-liquid extraction with 5.0 ml of 10:90 (v/v) ethyl acetate/hexane. The solvent is evaporated under a stream of nitrogen at 40-50° C. and the remaining residue is derivatizsd. The derivatised analytes are extracted into 3.0 m of 10:90 (v/v) ethyl acetate/hexane, the solvent is evaporated, and the remaining residue is reconstituted with 150 μl acetonitrile and 200 μl water. The final extract is analyzed via high-performance liquid chromatography with tandem mass spectrometry detection.

For data set [2] the following is noted: intranasal, cited from earlier work.
For data set [3] the following is noted: Kuhnt et al.; cited from earlier work.

In the case of `CCCCC(=O)O[C@H]1CC[C@H]2[C@@H]3CCc4cc(O)ccc4[C@H]3CC[C@]12C` [estradiol valerate], in data set [1] (in vivo), the bioavailability is given as 30-60% and the “bioavailability, usually” value is 30-50%.

For `C[C@]12CC[C@@H]3c4ccc(O)cc4CC[C@H]3[C@@H]1CC[C@@H]2O` [estradiol], in data set [2] (after administration), the “time until pre-treatment level is reached” value is on record as “about 12 hours”. For the same compound, in data set [2], the “time to maximum plasma levels” value was 10 to 30 min. The compound also showed a Cmax in data set [1] (serum, 90 ug) of 0.5 to 0.8 ng/mL. The “bioavailability after oral administration” value in data set [3] is recorded as “about 5%”.

In general, Cmax refers to the peak of the concentration-time curve.

These data come from patent US20110097405A1, “ESTRADIOL-CONTAINING DRUG DELIVERY SYSTEM” (Bayer Schering Pharma Aktiengesellschaft, priority 2008, published 2011).
